Earlier results as cited in patent publication US20100286080A1, “AQUEOUS COMPOSITION COMPRISING CHITOSAN AND AN ACIDIC DRUG” (The Jordanian Pharmaceutical Manufacturing Co., priority 2007, published 2010).

Key:
[1] = single 200-mg oral dose, fasting subjects

CC(C)Cc1ccc(C(C)C(=O)O)cc1 (centres unmarked) [Ibuprofen]
Solubility in water: practically insoluble in water | Time of peak plasma levels after administration [1]: about 1 hr
